How the values were obtained:
[1] = test system: SMN2 minigene mRNA (SMN2-A minigene) in HEK293H cells; test: SMN2 minigene mRNA splicing RT-qPCR assay in cultured cells; format: cell-based, human; settings: Homo sapiens, HEK293-H; concentration increasing full length SMN2 mRNA 1.5-fold relative to vehicle-treated cells; HEK293H cells with SMN2-A minigene, 24 hours, 7-point concentration data; read-out: EC1.5x for production of full length SMN2 mRNA
How it was run: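 Stable SMN2-A minigene HEK293H; cpd 7-pt 3.16-fold series, 200× in DMSO, 24 h, 37 °C, n=2. Lysates → multiplex RT-qPCR (minigene FL + GAPDH), efficiency-corrected ΔΔCt vs vehicle. EC1.5× = 1.5-fold FL mRNA gain.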

[2] = test system: Smn protein in SMA patient fibroblast cells (GM03813); test: Smn protein assay in cultured cells (SMN HTRF); format: cell-based, human; settings: SMA patient fibroblast cells, 48 hours; for maximum fold (Fold) increase of Smn protein: 7-point concentration data, fold relative to vehicle control; for EC1.5x for Smn protein expression: 7-point concentration curve, SMN HTRF, concentration producing 1.5 times Smn protein vs DMSO vehicle control
How it was run: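 Fibroblasts, SMA patient; 5,000 cells/well; 7-pt curve, 3.16-fold serial dilution; 48 h, 37 °C, 5% CO2; RIPA lysis 1 h RT; anti-SMN d2 + kryptate overnight RT; HTRF 665/620 nm; fold vs DMSO; EC1.5×, max fold.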

| SMILES | melting point [°C] | EC (1.5-fold increase) [1] [µM] | maximum fold (Fold) increase of Smn protein [2] | EC1.5x for Smn protein expression [2] |
| --- | --- | --- | --- | --- |
| COc1ccc(-c2cc(=O)n3cc(N4CCCNCC4)cc(C)c3n2)cc1OC [Compound 238, 7-(1,4-diazepan-1-yl)-2-(3,4-dimethoxyphenyl)-9-methyl-4H-pyrido[1,2-a]pyrimidin-4-one] | 160 to 177 | 0.3 to 1 | ** (a fold increase between >1.2 and ≤1.35 is indicated by two stars (**)) |  |
| COc1ccc(-c2cc(=O)n3cc(N4C[C@H]5CCN(C)[C@H]5C4)ccc3n2)cc1F [Compound 246, 2-(3-fluoro-4-methoxyphenyl)-7-[(3aR,6aR)-1-methylhexahydropyrrolo[3,4-b]pyrrol-5(1H)-yl]-4H-pyrido[1,2-a]pyrimidin-4-one] | 205 to 209 | 1 to 3 | * (A maximum fold increase of ≤1.2 is indicated by one star (*)) |  |
| COc1ccc(-c2cc(=O)n3cc(C4=CCNCC4)cc(C)c3n2)cc1OC [Compound 247, 2-(3,4-dimethoxyphenyl)-9-methyl-7-(1,2,3,6-tetrahydropyridin-4-yl)-4H-pyrido[1,2-a]pyrimidin-4-one] | 186 to 191 | < 0.1 | ***** (a fold increase >1.65 is indicated by five stars (*****)) | **** (an EC1.5x≤0.3 μM is indicated by four stars (****)) |
| COc1ccc(-c2cc(=O)n3cc(C4=CCN(CCO)CC4)ccc3n2)cc1OC [Compound 248, 2-(3,4-dimethoxyphenyl)-7-[1-(2-hydroxyethyl)-1,2,3,6-tetrahydropyridin-4-yl]-4H-pyrido[1,2-a]pyrimidin-4-one] | 134 to 137 | 0.3 to 1 | **** (a fold increase between >1.5 and ≤1.65 is indicated by four stars (****)) | *** (an EC1.5× between >0.3 μM and ≤1 μM is indicated by three stars (***)) |
| COc1ccc(-c2cc(=O)n3cc(C4CCNCC4)cc(C)c3n2)cc1OC [Compound 250, 2-(3,4-dimethoxyphenyl)-9-methyl-7-(piperidin-4-yl)-4H-pyrido[1,2-a]pyrimidin-4-one] | 176 to 181 | < 0.1 | ***** (a fold increase >1.65 is indicated by five stars (*****)) | **** (an EC1.5x≤0.3 μM is indicated by four stars (****)) |
| COc1ccc(-c2cc(=O)n3cc(C4=CCN(C)CC4)cc(C)c3n2)cc1OC [Compound 251, 2-(3,4-dimethoxyphenyl)-9-methyl-7-(1-methyl-1,2,3,6-tetrahydropyridin-4-yl)-4H-pyrido[1,2-a]pyrimidin-4-one] | 187 to 196 | < 0.1 | ***** (a fold increase >1.65 is indicated by five stars (*****)) | **** (an EC1.5x≤0.3 μM is indicated by four stars (****)) |
| COc1ccc(-c2cc(=O)n3cc(C4CCN(C)CC4)cc(C)c3n2)cc1OC [Compound 252, 2-(3,4-dimethoxyphenyl)-9-methyl-7-(1-methylpiperidin-4-yl)-4H-pyrido[1,2-a]pyrimidin-4-one] | 170 to 174 | 0.1 to 0.3 | **** (a fold increase between >1.5 and ≤1.65 is indicated by four stars (****)) | *** (an EC1.5× between >0.3 μM and ≤1 μM is indicated by three stars (***)) |
| COc1ccc(-c2cc(=O)n3cc(N4C[C@H]5CNC[C@H]5C4)cc(C)c3n2)cc1OC [Compound 257, 2-(3,4-dimethoxyphenyl)-7-[(3aR,6aS)-hexahydropyrrolo[3,4-c]pyrrol-2(1H)-yl]-9-methyl-4H-pyrido[1,2-a]pyrimidin-4-one] | 215 | < 0.1 | **** (a fold increase between >1.5 and ≤1.65 is indicated by four stars (****)) | ** (an EC1.5× between >1 μM and ≤3 μM is indicated by two stars (**)) |

The next lines start with results.

| melting point [°C] | SMILES | EC (1.5-fold increase) [1] [µM] | maximum fold (Fold) increase of Smn protein [2] | EC1.5x for Smn protein expression [2] |
| --- | --- | --- | --- | --- |
| 206 to 210 | Cc1nc2ccc(-c3cc(=O)n4cc(N5CCC(N(C)C)CC5)ccc4n3)cc2o1 [Compound 240, 7-[4-(dimethylamino)piperidin-1-yl]-2-(2-methyl-1,3-benzoxazol-6-yl)-4H-pyrido[1,2-a]pyrimidin-4-one] | < 0.1 | **** (a fold increase between >1.5 and ≤1.65 is indicated by four stars (****)) | **** (an EC1.5x≤0.3 μM is indicated by four stars (****)) |
| 189 to 193 | Cc1nc2ccc(-c3cc(=O)n4cc(N5CC[C@H](N(C)C)C5)ccc4n3)cc2o1 [Compound 241, 7-[(3S)-3-(dimethylamino)pyrrolidin-1-yl]-2-(2-methyl-1,3-benzoxazol-6-yl)-4H-pyrido[1,2-a]pyrimidin-4-one] | 0.1 to 0.3 | ***** (a fold increase >1.65 is indicated by five stars (*****)) | **** (an EC1.5x≤0.3 μM is indicated by four stars (****)) |
| 181 to 187 | Cc1nc2ccc(-c3cc(=O)n4cc(N5CCN(C)[C@H](C)C5)ccc4n3)cc2o1 [Compound 244, 7-[(3R)-3,4-dimethylpiperazin-1-yl]-2-(2-methyl-1,3-benzoxazol-6-yl)-4H-pyrido[1,2-a]pyrimidin-4-one] | < 0.1 | **** (a fold increase between >1.5 and ≤1.65 is indicated by four stars (****)) | **** (an EC1.5x≤0.3 μM is indicated by four stars (****)) |
| 205 to 207 | Cc1nc2ccc(-c3cc(=O)n4cc(N5CCCNCC5)ccc4n3)cc2s1 [Compound 253, 7-(1,4-diazepan-1-yl)-2-(2-methyl-1,3-benzothiazol-6-yl)-4H-pyrido[1,2-a]pyrimidin-4-one] | 1 to 3 | * (A maximum fold increase of ≤1.2 is indicated by one star (*)) |  |
| 158 to 160 | Cc1nc2ccc(-c3cc(=O)n4cc(N5CCCN(C)CC5)ccc4n3)cc2s1 [Compound 254, 2-(2-methyl-1,3-benzothiazol-6-yl)-7-(4-methyl-1,4-diazepan-1-yl)-4H-pyrido[1,2-a]pyrimidin-4-one] | 0.1 to 0.3 | *** (a fold increase between >1.35 and ≤1.5 is indicated by three stars (***)) | ** (an EC1.5× between >1 μM and ≤3 μM is indicated by two stars (**)) |
| 250 to 260 | Cc1nc2ccc(-c3cc(=O)n4cc(N5CCN6CCC[C@H]6C5)ccc4n3)cc2s1 [Compound 255, 7-[(8aS)-hexahydropyrrolo[1,2-a]pyrazin-2(1H)-yl]-2-(2-methyl-1,3-benzothiazol-6-yl)-4H-pyrido[1,2-a]pyrimidin-4-one] | 0.3 to 1 | ** (a fold increase between >1.2 and ≤1.35 is indicated by two stars (**)) |  |
| 230 to 234 | Cc1nc2ccc(-c3cc(=O)n4cc(N5CCN(C)CC5)ccc4n3)cc2s1 [Compound 256, 2-(2-methyl-1,3-benzothiazol-6-yl)-7-(4-methylpiperazin-1-yl)-4H-pyrido[1,2-a]pyrimidin-4-one] | 0.3 to 1 | **** (a fold increase between >1.5 and ≤1.65 is indicated by four stars (****)) | ** (an EC1.5× between >1 μM and ≤3 μM is indicated by two stars (**)) |
